pIC50: −log10 of the molar value. Where two headings read alike, the source gives them in different places.
What was measured:
Experiment in all cases: Microculture tetrazolium assay
Type in all cases: cell-based
HT29 = conditions: read-out: IC50
T47D = conditions: read-out: IC50
LOX = system: LOX
SKOV3 = conditions: read-out: IC50
SKVLB = conditions: for VLB/OV3: IC50 ratio SKVLB/SKOV3; for pIC50: SKVLB, read-out: IC50

SMILES | pIC50 (HT29; Homo sapiens, HT-29, HT29) | pIC50 (T47D; Homo sapiens) | pIC50 (LOX; read-out: IC50) | pIC50 (SKOV3; Homo sapiens, SK-OV-3, SKOV3) | VLB/OV3 (SKVLB) | pIC50 (SKVLB) | pIC50 (LOX) | VLB/OV3 (SKVLB; listed as BCH1157) | pIC50 (SKVLB; listed as BCH1157) | pIC50 (HT29; HT29) | pIC50 (T47D) | pIC50 (SKOV3; SKOV3) | VLB/OV3 (SKVLB; listed as BCH1158) | pIC50 (SKVLB; listed as BCH1158)
CC(=O)OCC1(C2CC3=C(C(=O)c4c(cc5ccccc5c4O)C3=O)C(O[C@H]3C[C@H](NC(=O)C(F)(F)F)[C@H](O)[C@H](C)O3)O2)OCCCO1 (some centres unmarked) [BCH-748] | 5.22 | 5.11 | 5.00 | 5.31 | 1.72 | 5.08 |  |  |  |  |  |  |  | 
CC1(C2CC3=C(CO2)C(=O)c2c(cc4ccccc4c2O)C3=O)OCCCO1 (centres unmarked) [BCH-1108] | 5.55 | 5.42 | 4.00 | 5.82 | 1.5 | 5.64 |  |  |  |  |  |  |  | 
CC1(C2CC3=C(CO2)C(=O)c2cc4ccccc4c(O)c2C3=O)OCCCO1 (centres unmarked) [BCH-1109] | 4.20 | 4.33 | 4.12 | 4.21 |  | 4.00 |  |  |  |  |  |  |  | 
CC(=O)Oc1c2c(c(O)c3ccccc13)C(=O)C1=C(CC(C3(C)OCCCO3)OC1)C2=O (centres unmarked) [BCH-1110] | 4.54 | 4.00 | 4.00 | 4.00 |  | 4.00 |  |  |  |  |  |  |  | 
CC(=O)Oc1c2c(c(O)c3ccccc13)C(=O)C1=C(COC(C3(C)OCCCO3)C1)C2=O (centres unmarked) [BCH-1111] | 4.00 | 4.00 | 4.01 | 4.00 |  | 4.25 |  |  |  |  |  |  |  | 
CC1(C2CC3=C(CO2)C(=O)c2c(cc4ccccc4c2O)C3=O)OCCO1 (centres unmarked) [BCH-1112] | 5.26 | 5.04 | 5.27 | 5.29 | 0.55 | 5.55 |  |  |  |  |  |  |  | 
CC1(C2Cc3c(O)c4c(c(O)c3CO2)C(=O)c2ccccc2C4=O)OCCO1 (centres unmarked) [BCH-1114] | 4.16 | 4.00 | 4.00 | 4.19 |  | 4.00 |  |  |  |  |  |  |  | 
CC1(C2Cc3c(O)c4c(c(O)c3CO2)C(=O)c2ccccc2C4=O)OCCCO1 (centres unmarked) [BCH-1115] | 5.20 | 4.90 | 5.15 | 5.03 | 1.24 | 4.94 |  |  |  |  |  |  |  | 
CC(=O)C1Cc2c(O)c3c(c(O)c2C(O)O1)C(=O)c1ccccc1C3=O (centres unmarked) [BCH-1116] | 5.12 | 4.95 | 4.50 | 4.58 | 0.82 | 4.67 |  |  |  |  |  |  |  | 
CC(=O)[C@H]1CC2=C(C(=O)c3cc4ccccc4c(O)c3C2=O)[C@H](O[C@H]2C[C@H](O)[C@H](O)[C@H](C)O2)O1 [BCH-1123, (1'S,1S,3R)-Methyl-[6-hydroxy-1-(2',3',6'-trideoxy-3',4'-dihydroxy-L-lyxohexopyranose)-5,12-dioxo-3,4,5,12-tetrahydroanthraceno(2,3-C)pyran-3-yl]ketone] | 6.36 | 5.42 | 5.91 | 5.85 | 0.92 | 5.89 |  |  |  |  |  |  |  | 
CC(=O)[C@@H]1CC2=C(C(=O)c3cc4ccccc4c(O)c3C2=O)[C@@H](O[C@H]2C[C@H](O)[C@H](O)[C@H](C)O2)O1 [BCH-1124, (1'S,1R,3S)-Methyl-[6-hydroxy-1-(2',3',6'-trideoxy-3',4'-dihydroxy-L-lyxohexopyranose)-5,12-dioxo-2,3,5,12-tetrahydroxyanthraceno(2,3-C)pyran-3-yl]ketone] | 5.84 | 5.22 |  | 5.30 | 0.44 | 5.66 | 5.73 |  |  |  |  |  |  | 
C[C@@H]1O[C@@H](O[C@H]2O[C@H](C(=O)COC(=O)C(C)(C)C)CC3=C2C(=O)c2cc4ccccc4c(O)c2C3=O)C[C@H](NC(=O)C(F)(F)F)[C@@H]1O [BCH-1136, (1'S,1R,3S)-1,2,3,4,5,12-hexahydro-6-hydroxy-3-trimethylacetoxyaceto-1-N-trifluoroacetyl-L-daunosamine-(2-oxo)-naphthacene-5,12-dione] | 4.94 | 4.72 | 4.91 | 4.74 | 1.28 | 4.64 |  |  |  |  |  |  |  | 
C[C@@H]1O[C@@H](O[C@@H]2O[C@@H](C(=O)COC(=O)C(C)(C)C)CC3=C2C(=O)c2cc4ccccc4c(O)c2C3=O)C[C@H](NC(=O)C(F)(F)F)[C@@H]1O [BCH-1137, (1'S,1S,3R)-1,2,3,4,5,12-hexahydro-6-hydroxy-3-trimethylacetoxyaceto-1-N-trifluoroacetyl-L-daunosamine-(2-oxo) naphthacene-5,12-dione] | 5.20 | 5.08 | 5.05 | 4.86 | 1.03 | 4.85 |  |  |  |  |  |  |  | 
COC(=O)C1CC2=C(CS1)C(=O)c1cc3ccccc3c(O)c1C2=O (centres unmarked) [BCH-1149] | 4.53 | 4.41 | 4.60 | 4.52 | 1.38 | 4.38 |  |  |  |  |  |  |  | 
COC(=O)C1CC2=C(CS1)C(=O)c1c(cc3ccccc3c1O)C2=O (centres unmarked) [BCH-1150] | 4.19 | 4.11 | 4.07 | 4.00 |  | 4.00 |  |  |  |  |  |  |  | 
CC(=O)C1CC2=C(CS1)C(=O)c1cc3ccccc3c(O)c1C2=O (centres unmarked) [BCH-1151] | 4.23 | 4.20 | 4.52 | 4.27 | 1.41 | 4.12 |  |  |  |  |  |  |  | 
CC(=O)C1CC2=C(CS1)C(=O)c1c(cc3ccccc3c1O)C2=O (centres unmarked) [BCH-1152] | 4.00 | 4.00 | 4.00 | 4.00 |  | 4.00 |  |  |  |  |  |  |  | 
C[C@@H]1O[C@@H](O[C@H]2O[C@H](C3(CO)OCCCO3)CC3=C2C(=O)c2cc4ccccc4c(O)c2C3=O)C[C@H](N)[C@@H]1O [BCH-1153] | 5.53 | 5.33 | 5.54 | 5.52 | 4.93 | 4.83 |  |  |  |  |  |  |  | 
C[C@@H]1O[C@@H](O[C@@H]2O[C@@H](C3(CO)OCCCO3)CC3=C2C(=O)c2cc4ccccc4c(O)c2C3=O)C[C@H](N)[C@@H]1O [BCH-1154] | 5.07 | 4.85 | 5.43 | 5.05 | 3.18 | 4.55 |  |  |  |  |  |  |  | 
C=C[C@H]1CC2=C(C(=O)c3cc4ccccc4c(O)c3C2=O)[C@H](O[C@H]2C[C@H](NC(=O)C(F)(F)F)[C@H](O)[C@H](C)O2)O1 [BCH-1155] | 5.06 | 5.07 | 5.40 | 5.20 | 1.12 | 5.15 |  |  |  |  |  |  |  | 
CC(=O)C1Cc2c(O)c3c(c(O)c2C(O[C@H]2C[C@H](N=[N+]=[N-])[C@H](I)[C@H](C)O2)O1)C(=O)c1ccccc1C3=O (some centres unmarked) [BCH-1156] | 4.44 | 4.00 | 4.00 | 4.58 |  | 4.00 |  |  |  |  |  |  |  | 
CC(=O)C1CC2=C(C(=O)c3cc4ccccc4c(O)c3C2=O)C(OC2CC(N=[N+]=[N-])C(I)C(C)O2)O1 (centres unmarked) [BCH-1157] | 4.89 | 4.42 | < 4.00 | 4.83 |  |  |  | 1.43 | 4.68 |  |  |  |  | 
CC(=O)C1CC2=C(C(=O)c3cc4ccccc4c(O)c3C2=O)C(OC2CC(N=[N+]=[N-])C(I)C(C)O2)O1 (centres unmarked) [BCH-1158] |  |  | < 4.00 |  |  |  |  |  |  | 5.08 | 4.59 | 5.08 | 0.74 | 5.21
CC(=O)O[C@@H]1[C@H](C)O[C@@H](O[C@H]2O[C@H](C(C)=O)CC3=C2C(=O)c2cc4ccccc4c(O)c2C3=O)C[C@@H]1OC(C)=O [BCH-1165, (1'S,1R,3S)-methyl-(6-hydroxy-1-(2',3',4',6'-tetradeoxy-3',4'-diacetyl-L-lyxohexopyranose)-5,12-dioxo-3,4,5,12-tetrahydroanthraceno-[2,3-c]pyran-3-yl) ketone] | 5.00 | 4.50 | 4.63 | 4.52 | 1.38 | 4.38 |  |  |  |  |  |  |  | 

Source: patent publication US5593970A, “Heterocyclic anthracycline analogs” (priority 1994, dated 1997)
